Test results published in US20150119317A1, “ORAL SOLID DOSAGE FORMULATION OF 1,1-DIMETHYLETHYL [(1S)-1-CARBAMOYL)PYRROLIDIN-1-YL]CARBONYL}-2,2-DIMETHYLPROPYL]CARBAMATE” (BRISTOL-MYERS SQUIBB COMPANY, priority 2012, published 2015).

Assay: Bioequivalence study: PK of wet and dry granulated tablets in a dog model
Type: in vivo
Settings: fed state with 50 ml high-fat meal substitute
Description: A study was conducted to compare conventional tablet dosage forms. The goal of the study was to assess the in vivo performance of various prototypes of conventional tablet dosage forms (wet and dry granulated tablets) in a dog model.
The following five formulations were tested: […]
1. Phase 2 Clinical (dry granulated (DG)) tablet 2×200 mg.
2. Wet granulated (WG) Vitamin E TPGS/poloxamer tablet: 50% w/w Compound I+4.67% w/w Vitamin E TPGS+4% w/w poloxamer+14.33% w/w microcrystalline cellulose+15% lactose monohydrate+11.5% w/w croscarmellose sodium+0.5% w/w magnesium stearate; 2×200 mg (Corresponds to the formulation shown above in Table 1).
3. WG poloxamer tablet: 50% w/w Compound I+2% w/w polyvinyl pyrrolidone+4% w/w poloxamer+16% microcrystalline cellulose+16% w/w lactose monohydrate+11.5% w/w croscarmellose sodium+0.5% w/w magnesium stearate; 2×200 mg (Corresponds to the formulation shown above in Table 5).
4. Amorphous API tablet: 50% w/w Compound I+41.25% w/w microcrystalline cellulose+5% w/w croscarmellose sodium+2% w/w silicon dioxide+1% w/w sodium lauryl sulphate+0.75% w/w magnesium stearate; 2×200 mg.
5. Solution Formulation: Polyethylene glycol 400:EtOH: polysorbate 80 (50:35:15), 20 mg/mL.
The protocol used was as follows:
[…] For food-effect studies in the fed state, dogs were given 50 ml high-fat meal substitute instead of water.

food effect: significant positive food effect
Compound: C=C[C@@H]1C[C@]1(NC(=O)[C@@H]1C[C@@H](Oc2ncc(OC)c3ccc(Cl)cc23)CN1C(=O)[C@@H](NC(=O)OC(C)(C)C)C(C)(C)C)C(=O)NS(=O)(=O)C1CC1 [Compound I, 1,1-dimethylethyl[(1S)-1-{[(2S,4R)-4-(7-chloro-4methoxyisoquinolin-1-yloxy)-2-({(1R,2S)-1-[(cyclopropylsulfonyl)carbamoyl]-2-ethenylcyclopropyl}carbamoyl)pyrrolidin-1-yl]carbonyl}-2,2-dimethylpropyl]carbamate]
